In article PMC12055592, “Post-symptomatic NLRP3 inhibition rescues cognitive impairment and mitigates amyloid and tau driven neurodegeneration” (Npj Dementia, 2025):

Columns and labels:
5XFAD/Rubicon KO mice [1] = experiment: Brain immunohistochemistry (Iba1, Aβ, pTau S396, NeuN) in 5XFAD/Rubicon KO mice; format: in vivo, mouse; settings: 9 weeks PO QD
Procedure: (§1) 5XFAD/Rubicon KO mice received vehicle (0.5% w/v methylcellulose/0.1% w/v Tween® 80 in water) or VEN-02XX (0.01, 1, or 20 mg/kg) every day by oral gastric gavage for 9 weeks.
Following post-mortem collection, the brain was placed in a mouse brain matrix and sliced along the sagittal suture to separate the hemispheres. The left hemisphere was immediately processed for downstream biochemical analyses by snap freezing in liquid nitrogen. The right half was drop-fixed in 4% PFA in PBS for 24 h and then washed 5x in fresh PBS before being submerged in 30% sucrose cryoprotectant solution for 24 h. After 24 h, brains were frozen in cryomolds in a 2:1 mixture of 30% sucrose and optimal cutting temperature compound (OCT), cryomolds were stored at −80 °C until use. For slide preparation, brains were allowed to acclimatize to −20 °C in a Thermo Shandon cryotome. After equilibration at −20 °C, tissue was cryostat sectioned at 25 μm (cortex) or 40 μm (free floating sections for hippocampus). Steam-mediated antigen retrieval was performed using 1x citrate buffer. Sections were rinsed in PBS, blocked in 3% bovine serum albumin/0.2% Triton X-100/PBS for 1 h, and incubated with primary antibodies in blocking buffer overnight at 4 °C (1:200 goat anti-Iba1 [Novus Biologicals, Centennial, CO], 1:500 mouse anti-Aβ 82E1 MOAB [Immuno-Biological Laboratories, Inc., Spring Lake Park, MN], 1:200 rabbit anti-pTau S396 [Cell Signaling, Danvers, MA], 1:200 mouse anti-NeuN [Cell Signaling]). Sections were incubated with appropriate secondary antibodies (Jackson ImmunoResearch, West Grove, PA) for 1 h at room temperature. For the complete list of antibodies please reference Supplementary Table 2. ProLong™ Diamond or ProLong™ Gold Antifade Mountant with or without 4’,6-diamidino-2-phenylindole (DAPI) counterstain (Thermo Fisher Scientific, Waltham, MA). Slides were imaged on a Zeiss Axio-observer A1 inverted microscope with an Andor iXon EMCCD camera and X-Cite LED fluorescence unit. Image analysis was performed using Fiji and 3DMorph AnalyzeSkeleton for microglial analyses.

5XFAD/Rubicon KO mice [2] = experiment: Plasma neurofilament light chain (NfL) ELISA in 5XFAD/Rubicon KO mice; format: in vivo, mouse; settings: 20 mg/kg, 9 weeks PO QD; lack of a dose-response
Procedure: as §1
Blood was collected via submandibular puncture. Briefly, mice were immobilized, and a small puncture was made in the submandibular vein using a sterile 28 g lancet. Blood was collected using a capillary tube coated in 0.5 M EDTA into separation tubes for plasma as indicated. Blood was subsequently centrifuged for 15 min at 13,000 rpm in a refrigerated centrifuge. Plasma was harvested as indicated and was either used immediately or stored at −80 °C until use.
Brain tissue was homogenized in PBS, pH 7.4 with 1X Halt™ protease inhibitor cocktail (Thermo Fisher Scientific, Waltham, MA) using a Bead Ruptor homogenizer (Omni International, Kennesaw, GA). Homogenates were clarified by centrifugation at 10,000 × g for 10 min. The crude homogenate was used for quantification of VEN-02XX levels, as described below. Total protein concentrations were quantified from clarified supernatants in a Pierce BCA protein assay (Thermo Fisher Scientific). Cytokine and chemokine levels were quantified using an electrochemiluminescence immunoassay (ECLIA) for IL-1β (total), TNFα, IL-6 and IP-10 (U-PLEX Custom Biomarker Group 1 (mouse) assay, Meso Scale Discovery, Rockville, MD) following the manufacturer’s instructions. […]

[3] = Mouse brain pharmacokinetic study (brain-to-plasma partition); format: in vivo; settings: male, single oral dose 20 mg/kg
Procedure: Five groups of n = 3 male CD1 mice (weight 20–30 g, age 6–8 weeks old) were dosed by oral gavage with 20 mg/kg of VEN-02XX suspended in 0.5% w/v methylcellulose/0.1% w/v Tween 80, at a dose volume of 10 mL/kg. Food and water were available ad libitum to all animals. At a specific timepoint for each group (0.25, 1, 2, 4, and 8 h), 0.2 mL of blood was collected from the dorsal metatarsal vein and transferred into plastic micro centrifuge tubes with EDTA-K2 as anticoagulant, then animals were terminally anaesthetized with a rising concentration of CO2 gas for about 1 min, brains were collected and rinsed with cold PBS. […]
Concentrations of VEN-02XX in plasma and brain were determined by a LC-MS/MS assay. […] Two transitions were monitored for VEN-02XX and the more sensitive transition with less interference (397.1 –> 270.1) was used for quantification.
Pharmacokinetic parameters were determined by non-compartmental analysis using WinNonLin software (Phoenix^TM, version 8.3), and the following parameters were calculated from the plasma concentrations versus time data: T1/2, Cmax, Tmax, AUCinf, AUClast. When appropriate, the brain Kp was calculated as AUClast(brain)/AUClast(plasma). Free brain partition coefficient (Kpuu) was calculated using the free fraction in plasma and brain measured in a high throughput equilibrium dialysis assay.

CC(C)(O)CNc1nnc(-c2ccc(Cl)cc2C(F)(F)F)c2ccncc12 [VEN-02XX]
microglial branch length (5XFAD/Rubicon KO mice [1]; 20 mg/kg, 3DMorph): significant increases in microglial branch length
pTau S396 signal (5XFAD/Rubicon KO mice [1]; 20 mg/kg, cortex and CA3 region of hippocampus): almost complete suppression in pTau signal
microglia/plaque association (co-localization of Iba1 with amyloid) (5XFAD/Rubicon KO mice [1]): robust disassociation of the microglia from the Aβ plaques
microglial soma volume (5XFAD/Rubicon KO mice [1]; 3DMorph): commensurate decreases in soma volume in a dose-dependent and statistically significant manner
gross microglial morphology (5XFAD/Rubicon KO mice [1]; Iba1 staining): transition from the disease-associated active ameboid morphology towards a homeostatic ramified morphology
CA3 and dentate gyrus thickness (5XFAD/Rubicon KO mice [1]; NeuN stained sections): significantly increased both CA3 and dentate gyrus (DG) thickness
phosphorylated tau (pTau S396) mean area (5XFAD/Rubicon KO mice [1]; cortex and CA3 region of hippocampus): dose-dependent and statistically significant reduction in phosphorylated tau
Iba1 mean area (microglial activation) (5XFAD/Rubicon KO mice [1]; cortex and hippocampus): reduced the cumulative signal of the key microglial activation marker, Iba1, in both the cortex and hippocampus in a dose-dependent and statistically significant manner
NeuN+ cell count (neuronal numbers) (5XFAD/Rubicon KO mice [1]; cortex and hippocampus): robust dose-dependent and statistically significant neuroprotective effect
Aβ plaque area/size (5XFAD/Rubicon KO mice [1]; cortex and hippocampus, especially at higher doses): significant reduction in Aβ plaque area/size in both the cortex and hippocampus in a dose-dependent manner
Aβ plaque burden (cumulative plaque #) (5XFAD/Rubicon KO mice [1]; cortex and hippocampus, did not reach statistical significance): trending reduction in Aβ plaque burden
plasma NfL levels (5XFAD/Rubicon KO mice [2]): significantly reduced
Kp ([3]; CD1, brain and plasma (total), AUClast (total drug), read-out: total brain-to-plasma partition coefficient, Kp): 0.86
Kp uu ([3]; CD1, brain and plasma (unbound), AUClast (free drug), read-out: unbound brain-to-plasma partition coefficient, Kp,uu brain): 0.39
